According to ChEMBL document CHEMBL1147107, “Safety and pharmacokinetics of brecanavir, a novel human immunodeficiency virus type 1 protease inhibitor, following repeat administration with and without ritonavir in healthy adult subjects” (Antimicrob Agents Chemother, 2007):

What was measured:
Assay type in all cases: ADME, organism-based
[1] = Cmax in healthy human plasma at 800 mg for every 12 hrs measured on day 15; parameters: dose 800 mg
[2] = Tmax in healthy human plasma at 800 mg for every 12 hrs measured on day 15
[3] = Cmax in healthy human plasma at 800 mg measured on day 1; parameters: dose 800 mg
[4] = AUC (0-tau) in healthy human plasma at 800 mg for every 12 hrs measured on day 15
[5] = Apparent oral clearance in healthy human plasma at 800 mg for every 12 hrs measured on day 15
[6] = Tmax in healthy human plasma at 800 mg measured on day 1
[7] = Trough concentration in healthy human plasma at 800 mg for every 12 hrs measured on day 15; conditions: read-out: Cmin

- Cmax [1]: 49.2 ng/mL
- Tmax [2]: 3.75 h
- Cmax [3]: 3.96 ng/mL
- AUC tau at 12 h [4]: 199 ng·h/mL
- CL/F [5]: 67000 mL/min
- Tmax [6]: 2.5 h
- concentration at 12 h [7]: 2.6 ng/mL
Structure (SMILES): Cc1nc(COc2ccc(C[C@H](NC(=O)O[C@H]3CO[C@H]4OCC[C@H]43)[C@H](O)CN(CC(C)C)S(=O)(=O)c3ccc4c(c3)OCO4)cc2)cs1 [BRECANAVIR]
